Laboratory results: US20250066366A1, “Crystal form of isobutyrate nucleoside compound, and preparation method” (Shenzhen AntiV Pharma Co., Ltd., priority 2021, published 2025)
≈ marks a conversion by molar mass, not a printed value. Like-named read-outs stand apart in the source and are kept apart here. Marks after values point to notes of the source that are not given here.

Columns and labels:
Assay type in all cases: physicochemical
[1] = Grinding experiment of crystalline form III (XRPD after manual grinding); conditions: ground manually with mortar and pestle for 5 minutes
Description: (§1) X-ray powder diffraction patterns were collected on a PANalytical Empyrean X-ray diffractometer of the Netherlands equipped with a transmission-reflection sample stage with an automated 3*15 zero background sample holder. The radiation source used was (Cu, kα, Kα1 (Å): 1.540598; Kα2 (Å): 1.544426; Kα2/Kα1 intensity ratio: 0.50), wherein the voltage was set at 45 KV and the current was set at 40 mA. The beam divergence of the X-rays, i.e. the effective size of the X-ray confinement on the sample, was 6.6 mm. The continuous scanning mode of θ-θ was adopted, and an effective 2θ range of 3° to 40° was obtained. A proper amount of sample was placed at the position of the circular groove of the zero-background sample rack under the environmental condition (about 18° C. to 32° C.), the sample was lightly pressed with a clean glass slide to obtain a flat plane, and the zero-background sample rack was fixed. The samples were scanned at a scan step of 0.013° in the range of 3° to 40° 2θ±0.2° to obtain a traditional X-ray powder diffraction pattern.
Crystalline form III was ground manually with a mortar and pestle for 5 minutes, and XRPD of the ground solid was tested.

[2] = Solubility test in biological media (SGF, FaSSIF, FeSSIF) and water at 37° C.; conditions: for pH (24 h): solution pH after 24 h; for solubility at 0.5 h: read-out: Solubility (mg/mL) 0.5 h; for solubility at 2 h: read-out: Solubility (mg/mL) 2 h; for solubility at 24 h: read-out: Solubility (mg/mL) 24 h
Method: Crystalline form III has the highest solubility in SGF (>7 mg/mL). The solubility in pure water, FeSSIF, and FaSSIF were all greater than 1 mg/mL.

[3] = Solid state stability test (XRPD and HPLC); conditions: for Purity-1 week (Peak area %): HPLC, initial purity 99.71%; for Crystal-1 week: XRPD
Description: as §1
The instrument used for liquid chromatography analysis is Agilent HPLC 1260 series, which is used for the analysis of solid-state stability of samples.
A certain amount of crystalline form III of compound A as a sample was placed under conditions of 40° C./75% RH (open) and 60° C. (closed) for one week, and XRPD and HPLC of the sample were tested.

[4] = Dynamic water vapor adsorption detection of crystalline form III

crystalline structure after grinding (XRPD) [1]: did not change | pH (24 h) ([2]; FaSSIF (pH = 6.53)): 6.50 | pH (24 h) ([2]; FeSSIF (pH = 4.97)): 4.96 | Solubility (mg/mL) ([2]; SGF (pH = 1.20), 0.5 h, 2 h, 24 h, visual observation): >7* mg/mL | pH (24 h) ([2]; SGF (pH = 1.20)): 1.37 | change in solution pH after the solubility test ([2]; SGF, FaSSIF, FeSSIF and water): no significant change | pH (24 h) ([2]; Water (pH = 6.67)): 6.43 | solubility ([2]; pH 1.2, simulated gastric fluid, thermodynamic from solid, SGF (pH = 1.20), 0.5 h, 2 h, 24 h, visual observation): > 7000 µg/mL | solubility ([2]; pH 4.97, thermodynamic from solid, FeSSIF): > 1000 µg/mL | solubility ([2]; pH 6.53, thermodynamic from solid, FaSSIF): > 1000 µg/mL | solubility ([2]; pH 6.67, thermodynamic from solid, pure water): > 1000 µg/mL | XRPD (24 h) ([2]; solid after 24 h in FaSSIF (pH = 6.53)): Crystalline | XRPD (24 h) ([2]; solid after 24 h in FeSSIF (pH = 4.97)): Crystalline | XRPD (24 h) ([2]; solid after 24 h in Water (pH = 6.67)): Crystalline | solubility at 0.5 h ([2]; thermodynamic from solid, FaSSIF (pH = 6.53), 0.5 h): 1.22 mg/mL (≈ 3.38 mM) | solubility at 2 h ([2]; thermodynamic from solid, FaSSIF (pH = 6.53), 2 h): 1.26 mg/mL (≈ 3.49 mM) | solubility at 24 h ([2]; thermodynamic from solid, FaSSIF (pH = 6.53), 24 h): 1.19 mg/mL (≈ 3.29 mM) | solubility at 0.5 h ([2]; thermodynamic from solid, FeSSIF (pH = 4.97), 0.5 h): 1.63 mg/mL (≈ 4.51 mM) | solubility at 2 h ([2]; thermodynamic from solid, FeSSIF (pH = 4.97), 2 h): 1.66 mg/mL (≈ 4.59 mM) | solubility at 24 h ([2]; thermodynamic from solid, FeSSIF (pH = 4.97), 24 h): 1.68 mg/mL (≈ 4.65 mM) | solubility at 0.5 h ([2]; thermodynamic from solid, Water (pH = 6.67), 0.5 h): 1.11 mg/mL (≈ 3.07 mM) | solubility at 2 h ([2]; thermodynamic from solid, Water (pH = 6.67), 2 h): 1.22 mg/mL (≈ 3.38 mM) | solubility at 24 h ([2]; thermodynamic from solid, Water (pH = 6.67), 24 h): 1.24 mg/mL (≈ 3.43 mM) | Purity-1 week (Peak area %) ([3]; 40° C./75% RH, open, listed as Sample 1): 99.68% | Purity-1 week (Peak area %) ([3]; 40° C./75% RH, open, listed as Sample 2): 99.71% | Crystal-1 week ([3]; 40° C./75% RH, open): No change | Purity-1 week (Peak area %) ([3]; 60° C. & closed, listed as Sample 1): 99.71% | Purity-1 week (Peak area %) ([3]; 60° C. & closed, listed as Sample 2): 99.65% | Crystal-1 week ([3]; 60° C. & closed): No change | physical and chemical stability ([3]; two acceleration conditions (40° C./75% RH open, 60° C. closed) for 14 days): physically and chemically stable | weight gain ([4]; 80% RH and 25° C.): less than 0.2% | crystalline form after testing ([4]; after dynamic water vapor adsorption test): did not change | hygroscopicity ([4]; dynamic water vapor adsorption test): does not have hygroscopicity
Compound: CC(C)C(=O)OC[C@H]1O[C@@](C#N)(c2ccc3c(N)ncnn23)[C@H](O)[C@@H]1O [crystalline form III, ((2R,3S,4R,5R)-5-(4-aminopyrrolo[2,1-f][1,2,4]triazin-7-yl)-5-cyano-3,4-dihydroxytetrahydrofuran-2-yl) methyl isobutyrate]
